Test results taken from patent publication US8933099B2, “Monocyclic pyridine derivative” (Eisai R&D Management Co., Ltd., priority 2013, dated 2015).

System: cell line RT112/84 xenograft
Assay: Antitumor effect in RT112/84 subcutaneous xenograft model in mice
Type: in vivo
Settings: oral, once a day for 14 days, tumor volume last day
From the text: Human […] cancer cell line RT112/84 (ECACC Number EC85061106-F0), which had been cultured in an RPMI-1640 medium containing 10% […], and penicillin and streptomycin, were adjusted to a concentration of 1×10^8 cells/mL with Hanks' Balanced Salt Solution (GIBCO 1424020) to prepare a cell suspension, and the suspension was mixed with […] (BD Biosciences, Cat/354234) in a ratio of 1:1 to prepare a cell suspension in a concentration of 5×10^7 cells/ml. The cell suspension was inoculated in a volume of 100 μL into a subcutaneous part of a right flank of nude mice, 7 weeks of age (BALB/cAJcl-nu/nu, female, Clea Japan Inc.). Ten days after cell inoculation, the shortest diameter and the longest diameter of a tumor in each mouse were measured by using an electronic digital caliper (Digimatic™ caliper, Mitutoyo Corporation), so as to calculate the volume of the tumor in accordance with the following calculation formula: Tumor volume(mm^3)=Longest diameter(mm)×Shortest diameter(mm)×Shortest diameter(mm)/2 […]
With respect to each of the control group and test substance administration group, a ratio of the weight measured on the final day to the weight measured on the first day (relative body weight: RBW) was calculated. […]

## CNC(=O)n1ccc2cc(Oc3ccnc(NC(=O)c4ccc(C5CCN(CCO)CC5)cc4)c3)c(OCCOC)cc21 [Example 22, 5-((2-(4-(1-(2-Hydroxyethyl)piperidin-4-yl)benzamide)pyridin-4-yl)oxy)-6-(2-methoxyethoxy)-N-methyl-1H-indole-1-carboxamide]
25 mg/kg
  T/C (%): 62%
50 mg/kg
  T/C (%): 33%
